pEC50: −log10 of the molar value. “Also recorded” adds a separate entry of the source.
Columns and labels:
[1] = tested on: β2AR EL2.52 F194 mutants (alanine, leucine, isoleucine); experiment: β-arrestin2 recruitment by Tango at β2AR EL2 mutants; format: cell-based
D2 I184A^EL2 mutant [2] = biological target: T1, D2 I184A^EL2 mutant (Homo sapiens, UniProt P14416, I184A); experiment: cell-based; format: cell-based; conditions: for effect of I184A mutation on β-arrestin2 recruitment: Tango
[3] = biological target: T2, D2 dopamine receptor (D2R) (Homo sapiens, UniProt P14416); experiment: cell-based; conditions: for Emax: read-out: D2 Gi/o Emax, D2 wild-type, normalized to quinpirole
human D2Long = human D2Long (Homo sapiens, UniProt P14416); experiment: cell-based; conditions: for Emax: read-out: D2 β-arrestin2 Emax, D2 wild-type, Tango, normalized to quinpirole
[4] = biological target: T2, D2 dopamine receptor (D2R); experiment: Bias calculation, Gi/o activity versus β-arrestin2 recruitment; format: cell-based; conditions: for bias factor: arrestin recruitment over Gi/o signaling, relative to quinpirole
D2 I184A^EL2 mutant [5] = biological target: T1, D2 I184A^EL2 mutant; experiment: Competitive binding kinetics with [3H] NMSP at I184A mutant

T2 sequence (P14416 whole entry): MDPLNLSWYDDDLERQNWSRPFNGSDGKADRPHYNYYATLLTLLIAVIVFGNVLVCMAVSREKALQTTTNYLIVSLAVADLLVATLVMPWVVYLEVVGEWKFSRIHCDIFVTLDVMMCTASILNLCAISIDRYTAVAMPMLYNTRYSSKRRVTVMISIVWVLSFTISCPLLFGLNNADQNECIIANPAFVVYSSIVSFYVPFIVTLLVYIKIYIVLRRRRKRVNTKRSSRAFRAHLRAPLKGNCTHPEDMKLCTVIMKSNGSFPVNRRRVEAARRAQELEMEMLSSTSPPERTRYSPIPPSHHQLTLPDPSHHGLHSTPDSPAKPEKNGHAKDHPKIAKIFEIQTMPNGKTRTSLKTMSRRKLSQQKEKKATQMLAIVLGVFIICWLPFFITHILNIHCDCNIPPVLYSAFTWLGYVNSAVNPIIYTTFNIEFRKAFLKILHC
human D2Long, sequence (P14416 whole entry): as above
T1 sequence (P14416 whole entry I184A): as the sequence (P14416 whole entry) above, with I184A counted along it

SMILES	effect of I184A mutation on β-arrestin2 recruitment (D2 I184A^EL2 mutant [2])	Emax [3] [%]	Emax (human D2Long) [%]	bias factor [4]	further results
CC(C)NC[C@H](O)c1ccc(O)c(O)c1 [isoproterenol, (−)-isoproterenol bitartrate]	–	–	–	–	β-arrestin2 recruitment at β2AR EL2 mutants [1]: substantially reduced
Clc1cccc(C2CCN(CCCOc3ccc4scnc4c3)CC2)c1Cl [UNC 9994, reference compound]	no change in arrestin recruitment efficacy	–	–	–	–
Cc1cc2c(N3CCN(CCCCOc4ccc5c(c4)NC(=O)CC5)CC3)cccc2[nH]1 [compound 6, 7-(4-(4-(2-methyl-1H-indol-4-yl)piperazin-1-yl)butoxy)-3,4-dihydroquinolin-2(1H)-one]	selectively abolishing; also recorded: partial but not complete loss of arrestin recruitment efficacy	86	78	1.3	pEC50 [3]: 9.31; pEC50 (human D2Long): 9.21; pEC50 (D2 I184A^EL2 mutant [2]): 8.57; Emax (D2 I184A^EL2 mutant [2]; read-out: β-arrestin2 Emax at I184A): 40%; SFSR summary (signaling profile) ([4]; Gi/o versus arrestin activity): no preference for arrestin recruitment over G protein activation
Cc1cc2c(N3CCN(CCCCOc4ccc5c(c4)NC(=O)CC5)CC3)cccc2n1C [compound 7, 7-(4-(4-(1,2-Dimethyl-1H-indol-4-yl)piperazin-1-yl)butoxy)-3,4-dihydroquinolin-2(1H)-one]	almost completely abolishes	60	78	20	increase in off-rate at I184A compared to D2R wild-type (D2 I184A^EL2 mutant [5]): 6.2 fold; increase in on-rate at I184A compared to D2R wild-type (D2 I184A^EL2 mutant [5]): 6.7 fold
O=C1CCc2ccc(OCCCCN3CCCN(c4cccc(Cl)c4Cl)CC3)nc2N1 [UNC 9975, reference compound]	no change in arrestin recruitment efficacy	–	–	–	–

Source: PMC5771956 (Nature chemical biology, 2017)
